Experimental data as given in ChEMBL document CHEMBL6134890, “Terminally Symmetric β-Turn Peptides for Multidrug-Resistant Bacterial Infections” (J Med Chem, 2025).
Converted amounts (≈) assume the structure as drawn. The source made the active and inactive calls. The calls are words filed in the database; no cut-off is given here. Bridge positions count the residues as written; N and C are the ends. Square brackets hold non-standard residues; d marks the D form. Peptide text beside a SMILES is read from it. * marks the point of attachment. X1 = CC[C@H](C)CCCCC(=O)*; dDab = NCC[C@@H](N)C(=O)O; Dab = NCC[C@H](N)C(=O)O

Key:
Escherichia coli [1] = experiment: Antimicrobial activity against multi-drug resistant Escherichia coli assessed as reduction in bacterial growth by broth dilution method; format: functional
[2] = Hemolytic activity in human Red blood cell assessed as hemolysis incubated for 1 hrs by microplate reader based analysis; format: toxicity; conditions: erythrocyte
Acinetobacter baumannii = experiment: Antimicrobial activity against multi-drug resistant Acinetobacter baumannii assessed as reduction in bacterial growth by broth dilution method; format: functional
HEK-293T = experiment: Cytotoxicity against HEK293T cells at 2 to 256 uM measured after 24 hrs by CCK-8 method; format: toxicity, cell-based; conditions: human, dose 2-256 µM
Staphylococcus aureus [3] = experiment: Antimicrobial activity against Staphylococcus aureus ATCC 25923 assessed as reduction in bacterial growth by broth dilution method; format: functional
BEAS-2B = experiment: Cytotoxicity against human BEAS-2B cells at 2 to 256 uM measured after 24 hrs by CCK-8 method; format: toxicity, cell-based; conditions: dose 2-256 µM
[4] = tested on: Staphylococcus epidermidis; experiment: Antimicrobial activity against multi-drug resistant Staphylococcus epidermidis assessed as reduction in bacterial growth by broth dilution method; format: functional
Escherichia coli [5] = experiment: Antimicrobial activity against Escherichia coli ATCC 25922 assessed as reduction in bacterial growth by broth dilution method; format: functional
Klebsiella pneumoniae = experiment: Antimicrobial activity against multi-drug resistant Klebsiella pneumoniae assessed as reduction in bacterial growth by broth dilution method; format: functional
Enterococcus faecalis = experiment: Antimicrobial activity against multi-drug resistant Enterococcus faecalis assessed as reduction in bacterial growth by broth dilution method; format: functional
Staphylococcus aureus [6] = experiment: Antimicrobial activity against multi-drug resistant Staphylococcus aureus assessed as reduction in bacterial growth by broth dilution method; format: functional
L02 = experiment: Cytotoxicity against human LO2 cells at 2 to 256 uM measured after 24 hrs by CCK-8 method; format: toxicity, cell-based; conditions: l02, 24 h, dose 2-256 µM
Cell membrane [7] = experiment: Induction of cytoplasmic membrane depolarization in multi-drug resistant Escherichia coli at 1 to 4 times MIC measured within 1 min by DiSC3-5 fluorescent dye based analysis
Cell membrane [8] = experiment: Induction of outer membrane permeabilization in multi-drug resistant Escherichia coli assessed as NPN uptake at 1 to 4 times MIC measured within 1 min by fluorescence based analysis; format: subcellular
Escherichia coli [9] = experiment: Bactericidal activity against multi-drug resistant Escherichia coli at 1 times MIC preincubated with LPS for 1 hrs followed by bacterial addition and measured after 18 hrs by microplate reader based analysis; format: functional, organism-based; conditions: time 19.0 hrs
Cell membrane [10] = experiment: Induction of cytoplasmic membrane depolarization in multi-drug resistant Staphylococcus aureus at 1 to 4 times MIC measured within 1 min by DiSC3-5 fluorescent dye based analysis
Staphylococcus aureus [11] = experiment: Antibacterial activity against Staphylococcus aureus ATCC 25923 at sub-inhibitory concentration measured after 7 passages for 18 hrs; format: functional, organism-based
Escherichia coli [12] = experiment: Antibacterial activity against Escherichia coli […] at sub-inhibitory concentration measured after 7 passages for 18 hrs; format: functional, organism-based
Staphylococcus aureus [13] = experiment: Drug resistance, ratio of MIC for Staphylococcus aureus ATCC 25923 after 15 passages exposure to MIC for Staphylococcus aureus ATCC 25923 after first exposure; format: functional
Escherichia coli [14] = experiment: Drug resistance, ratio of MIC for Escherichia coli ATCC 25922 after 15 passages exposure to MIC for Escherichia coli ATCC 25922 after first exposure; format: functional

NCCCC[C@H](NC(=O)[C@H](Cc1ccccc1)NC(=O)[C@H](CCCCN)NC(=O)[C@H](Cc1ccccc1)NC(=O)[C@H](CCCCN)NC(=O)[C@@H]1CCCN1C(=O)[C@H](Cc1c[nH]c2ccccc12)NC(=O)[C@H](Cc1c[nH]c2ccccc12)NC(=O)[C@H](Cc1c[nH]c2ccccc12)NC(=O)[C@@H]1CCCN1C(=O)[C@H](CCCCN)NC(=O)[C@H](Cc1ccccc1)NC(=O)[C@H](CCCCN)NC(=O)[C@H](Cc1ccccc1)NC(=O)[C@@H](N)CCCCN)C(N)=O (H-KFKFKPWWWPKFKFK-NH2)
MIC (Escherichia coli [1]): 4 µM (≈ 8.51 µg/mL) | HC10 [2]: > 256 µM | MIC (Acinetobacter baumannii): 4 µM (≈ 8.51 µg/mL) | Activity (HEK-293T): Toxic | MIC (Staphylococcus aureus [3]): 4 µM (≈ 8.51 µg/mL) | Activity (BEAS-2B): Toxic | MIC [4]: 4 µM (≈ 8.51 µg/mL) | MIC (Escherichia coli [5]): 2 µM (≈ 4.26 µg/mL) | MIC (Klebsiella pneumoniae): 4 µM (≈ 8.51 µg/mL) | MIC (Enterococcus faecalis): 2 µM (≈ 4.26 µg/mL) | MIC (Staphylococcus aureus [6]): 4 µM (≈ 8.51 µg/mL) | Activity (L02): Toxic

CC(C)[C@H](NC(=O)[C@H](CCCCN)NC(=O)[C@@H](NC(=O)[C@H](CCCCN)NC(=O)[C@H](Cc1ccccc1)NC(=O)[C@@H]1CCCN1C(=O)[C@H](Cc1c[nH]c2ccccc12)NC(=O)[C@H](Cc1c[nH]c2ccccc12)NC(=O)[C@H](Cc1c[nH]c2ccccc12)NC(=O)[C@@H]1CCCN1C(=O)[C@H](Cc1ccccc1)NC(=O)[C@H](CCCCN)NC(=O)[C@@H](NC(=O)[C@H](CCCCN)NC(=O)[C@@H](NC(=O)[C@@H](N)CCCCN)C(C)C)C(C)C)C(C)C)C(=O)N[C@@H](CCCCN)C(N)=O (H-KVKVKFPWWWPFKVKVK-NH2)
MIC (Escherichia coli [1]): 4 µM (≈ 8.92 µg/mL) | HC10 [2]: 243.97 µM | MIC (Acinetobacter baumannii): 8 µM (≈ 17.8 µg/mL) | Activity (HEK-293T): Toxic | MIC (Staphylococcus aureus [3]): 8 µM (≈ 17.8 µg/mL) | Activity (BEAS-2B): Toxic | MIC [4]: 4 µM (≈ 8.92 µg/mL) | MIC (Escherichia coli [5]): 4 µM (≈ 8.92 µg/mL) | MIC (Klebsiella pneumoniae): 16 µM (≈ 35.7 µg/mL) | MIC (Enterococcus faecalis): 4 µM (≈ 8.92 µg/mL) | MIC (Staphylococcus aureus [6]): 8 µM (≈ 17.8 µg/mL) | Activity (L02): Toxic

CC(C)CCCCC(=O)N[C@@H](CCN)C(=O)N[C@H](C(=O)N[C@@H](CCN)C(=O)N[C@H]1CCNC(=O)[C@H]([C@@H](C)O)NC(=O)[C@H](CCN)NC(=O)[C@H](CCN)NC(=O)[C@H](CC(C)C)NC(=O)[C@@H](Cc2ccccc2)NC(=O)[C@@H](CCN)NC1=O)[C@@H](C)O.CC[C@H](C)CCCCC(=O)N[C@@H](CCN)C(=O)N[C@H](C(=O)N[C@@H](CCN)C(=O)N[C@H]1CCNC(=O)[C@H]([C@@H](C)O)NC(=O)[C@H](CCN)NC(=O)[C@H](CCN)NC(=O)[C@H](CC(C)C)NC(=O)[C@@H](Cc2ccccc2)NC(=O)[C@@H](CCN)NC1=O)[C@@H](C)O (X1-[Dab]T[Dab][Dab][dDab][dF]L[Dab][Dab]T; lactam 4-C)
Activity (Cell membrane [7]): Active | Activity (Cell membrane [8]): Active | Activity (Escherichia coli [9]): inactive | Activity (Cell membrane [10]): inactive | Activity (Staphylococcus aureus [11]): inactive | Activity (Escherichia coli [12]): inactive

CC1(C)S[C@@H]2[C@H](NC(=O)[C@H](N)c3ccc(O)cc3)C(=O)N2[C@H]1C(=O)O [AMOXICILLIN]
MIC (Escherichia coli [1]): > 256 µM | MIC (Acinetobacter baumannii): 128 µM (≈ 46.8 µg/mL) | fold change (FC) (Staphylococcus aureus [13]): 64 | fold change (FC) (Escherichia coli [14]): 8 | MIC (Staphylococcus aureus [3]): 0.25 µM (≈ 0.0914 µg/mL) | MIC [4]: 128 µM (≈ 46.8 µg/mL) | MIC (Escherichia coli [5]): 4 µM (≈ 1.46 µg/mL) | MIC (Klebsiella pneumoniae): > 256 µM | MIC (Enterococcus faecalis): 64 µM (≈ 23.4 µg/mL) | MIC (Staphylococcus aureus [6]): 64 µM (≈ 23.4 µg/mL)

CO[C@H]1/C=C/O[C@@]2(C)Oc3c(C)c(O)c4c(O)c(c(/C=N/N5CCN(C)CC5)c(O)c4c3C2=O)NC(=O)/C(C)=C\C=C\[C@H](C)[C@H](O)[C@@H](C)[C@@H](O)[C@@H](C)[C@H](OC(C)=O)[C@@H]1C [RIFAMPIN]
MIC (Escherichia coli [1]): 64 µM (≈ 52.7 µg/mL) | MIC (Acinetobacter baumannii): 16 µM (≈ 13.2 µg/mL) | fold change (FC) (Staphylococcus aureus [13]): 64 | fold change (FC) (Escherichia coli [14]): 8 | MIC (Staphylococcus aureus [3]): 0.5 µM (≈ 0.411 µg/mL) | MIC [4]: 2 µM (≈ 1.65 µg/mL) | MIC (Escherichia coli [5]): 8 µM (≈ 6.58 µg/mL) | MIC (Klebsiella pneumoniae): 16 µM (≈ 13.2 µg/mL) | MIC (Enterococcus faecalis): 4 µM (≈ 3.29 µg/mL) | MIC (Staphylococcus aureus [6]): 0.5 µM (≈ 0.411 µg/mL)
